From patent publication US12583818B2 (DAEGU-GYEONGBUK MEDICAL INNOVATION FOUNDATION, priority 2020, dated 2026)
pIC50: −log10 of the molar value. Like-named read-outs stand apart in the source and are kept apart here.

Legend:
Pin1 = target: T1, Pin1 (Homo sapiens, UniProt Q13526); assay: Evaluation of Pin1 enzyme inhibitory activity (Sensolyte Green Pin1 assay kit); assay type: biochemical
T1 construct: purchased Anaspec
Procedure, shortened: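 Pin1 activity was measured with a fluorogenic kit assay (Sensolyte Green) using substrate prepared at 1 μM and protein at 50 μg/ml, both pre-mix concentrations. Compound working solutions were 100, 10, 1 or 0.1 μM, and reactions ran 2 h at room temperature in the dark, read at 490/520 nm. Inhibition was graded A–D by concentration.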

[1] = tested on: MDA-MB 231 triple negative breast cancer cell line; assay: MDA-MB 231 protein expression inhibition (Western blotting, cycline D1 vs Vinculin); assay type: cell-based; conditions: Homo sapiens, compound 10 μM, 72 hours, cycline D1 Western blot, read-out: MBA-MB-231 (amount of the protein compared to the DMSO-treated control group)
Method: In order to confirm the ability of the compound represented by formula 1 according to the present invention to inhibit the protein expression of MDA-MB 231 triple negative breast cancer cell line, the following experiment was performed, and the results are shown in Table 3 below.
MDA-MB-231 cells were cultured in a 5% CO2 incubator at 37° C. using RPMI medium supplemented with 10% FBS and 1% penicillin/streptomycin.
The cells were washed with PBS once a day, and then replaced with a new medium. The cells grown at the density of at least 90% 1 day before the experiment were detached using trypsin/EDTA, and then plated at the density of 100,000 per well in a 6-well plate.
On the next day of culture, the compound prepared in each example was treated at a concentration of 10 μM, and DMSO was treated at a concentration of 0.1% of the total as the control, followed by incubation for 72 hours. After 72 hours, the cells were washed twice with PBS, collected by scraping, and centrifuged at 13,000 rpm for 3 minutes to remove all the supernatant and only cells were taken.
RIPA buffer (containing 1× protease inhibitor and phosphatase inhibitor) was added to the prepared cells (80 μl/well), and the plate was shaken once every 5 minutes to disrupt the cells for a total of 15 minutes. The disrupted cells were centrifuged at 13,000 rpm for 15 minutes to collect only the supernatant protein. The obtained protein was quantified using a BCA protein quantification kit (Pierece, MA, USA), and a total of 10 μg of the protein was used for Western blotting.
The protein sample was isolated by 10% SDS-PAGE, and transferred to a PVDF membrane. Anti-human cycline D1 antibody (Cell signal) and anti-Vinculin antibody were bound to the protein sample, and the expression of the protein was measured by using an ECL reagent and LAS4000 equipment. The measurement results were quantified and generalized using ImageJ. The results are shown in Table 3 below by dividing the grades A to D according to the amount of the protein compared to the DMSO-treated control group.

[2] = tested on: A2780-SP cells (ovarian cancer stem cells); assay: Sphere cell viability of A2780-SP cells (Cell-titer Glo); assay type: cell-based
Procedure, shortened: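 A2780-SP ovarian cancer stem cells grown as spheres in ultra-low-attachment wells (1,500 cells/well) in neurobasal stem-cell medium with bFGF, EGF, B27. Compound added the day after plating, re-dosed on day 4, 8-day culture total; viability by CellTiter-Glo luminescence.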

[3] = tested on: A2780 cells (ovarian cancer cells); assay: Cell viability of A2780 cells (Cell-titer Glo); assay type: cell-based; conditions: Homo sapiens
Procedure, shortened: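 A2780 ovarian cancer cells seeded at 3000 viable cells/well in RPMI-1640 with 10% FBS, dosed the next day and grown 3 days. Viability measured by Cell-titer Glo luminescence.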

[4] = concentration at which the Pin1 enzyme activity is inhibited, 2 hours at room temperature, fluorescence 490 nm/520 nm, read-out: Pin 1 inhibition
[5] = 192 h, sphere cell viability, culture for 8 days, read-out: A2780-SP
[6] = Table 5, read-out: the concentration (second list of b710, cell line not named; matches A2780-SP column)
[7] = 72 h, cell viability, culture for 3 days, read-out: A2780
[8] = A2780, Table 5, read-out: A2780 cell concentration
[9] = Table 2, read-out: concentration at which Pin1 inhibitory activity was exhibited

T1 sequence (Q13526 whole entry): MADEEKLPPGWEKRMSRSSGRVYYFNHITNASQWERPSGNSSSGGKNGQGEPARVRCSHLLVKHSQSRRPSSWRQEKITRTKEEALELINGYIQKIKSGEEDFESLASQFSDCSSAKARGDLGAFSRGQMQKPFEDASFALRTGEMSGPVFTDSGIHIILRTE

SMILES | pIC50 (Pin1; [4]) | pIC50 [2, 5] | pIC50 [2, 6] | pIC50 [3, 7] | pIC50 [3, 8] | pIC50 (Pin1; [9]) | activity at 10 µM [1] [%]
CN(C)CCCOc1ccc(S(=O)(=O)NCCCc2c[nH]c3ccccc23)cc1 [Example 22, N-(3-(1H-indol-3-yl)propyl)-4-(3-(dimethylamino)propoxy)benzenesulfonamide] | 4.00 to 5.00 | – | – | – | – | – | 70 to 100
CCN(CC)CCCOc1ccc(S(=O)(=O)NCCCc2c[nH]c3ccccc23)cc1 [Example 35, N-(3-(1H-indol-3-yl)propyl)-4-(3-(diethylamino)propoxy)benzenesulfonamide] | 4.00 to 5.00 | – | – | – | – | – | 0 to 35
O=C1CCCN1CCCOc1ccc(S(=O)(=O)NCCCc2c[nH]c3ccccc23)cc1 [Example 44, N-(3-(1H-indol-3-yl)propyl)-4-(3-(2-oxopyrrolidin-1-yl)propoxy)benzenesulfonamide] | < 4.00 | – | – | – | – | – | 70 to 100
CN1CCC(CCOc2ccc(S(=O)(=O)NCCCc3c[nH]c4ccccc34)cc2)CC1 [Example 55, N-(3-(1H-indol-3-yl)propyl)-4-(2-(1-methylpiperidin-4-yl)ethoxy)benzenesulfonamide] | 4.00 to 5.00 | – | – | – | – | – | 70 to 100
CN1CCN(CCCOc2ccc(S(=O)(=O)N3CCC(c4c[nH]c5ccccc45)CC3)cc2)CC1 [Example 57, 3-(1-((4-(3-(4-methylpiperazin-1-yl)propoxy)phenyl)sulfonyl)piperidin-4-yl)-1H-indole] | 4.00 to 5.00 | – | – | – | – | – | 70 to 100
CN1CCC(CCCOc2ccc(S(=O)(=O)NCCCc3c[nH]c4ccccc34)cc2)CC1 [Example 60, N-(3-(1H-indol-3-yl)propyl)-4-(3-(1-methylpiperidin-4-yl)propoxy)benzenesulfonamide] | 5.00 to 6.00 | – | – | – | – | – | 50 to 70
O=S(=O)(NCCCc1c[nH]c2ccc(Cl)cc12)c1ccc(OCCCN2CCC(Cl)CC2)cc1 [Example 78, N-(3-(5-chloro-1H-indol-3-yl)propyl)-4-(3-(4-chloropiperidin-1-yl)propoxy)benzenesulfonamide] | 5.00 to 6.00 | – | – | – | – | – | 0 to 35
O=S(=O)(NCCCc1c[nH]c2ccc(Cl)cc12)c1ccc(OCCCN2CCC(F)CC2)cc1 [Example 80, N-(3-(5-chloro-1H-indol-3-yl)propyl)-4-(3-(4-fluoropiperidin-1-yl)propoxy)benzenesulfonamide] | 5.00 to 6.00 | – | – | – | – | – | 35 to 50
O=S(=O)(NCCCc1c[nH]c2ccc(Cl)cc12)c1ccc(OCCCN2CCC(C(F)(F)F)CC2)cc1 [Example 81, N-(3-(5-chloro-1H-indol-3-yl)propyl)-4-(3-(4-(trifluoromethyl)piperidin-1-yl)propoxy)benzenesulfonamide] | 5.00 to 6.00 | – | – | – | – | – | 0 to 35
O=S(=O)(NCCCc1c[nH]c2ccc(Cl)cc12)c1ccc(OCCCN2CCC(F)(F)CC2)cc1 [Example 82, N-(3-(5-chloro-1H-indol-3-yl)propyl)-4-(3-(4,4-difluoropiperidin-1-yl)propoxy)benzenesulfonamide] | 5.00 to 6.00 | – | – | – | – | – | 70 to 100

Further lines, with some results ahead:

pIC50 (Pin1; [4]) | pIC50 [2, 5] | pIC50 [2, 6] | pIC50 [3, 7] | pIC50 [3, 8] | pIC50 (Pin1; [9]) | SMILES | activity at 10 µM [1] [%]
5.00 to 6.00 | – | – | – | – | – | CN1CCN(CCCOc2ccc(S(=O)(=O)NCCCc3c[nH]c4ccccc34)cc2)CC1 [Example 31, N-(3-(1H-indol-3-yl)propyl)-4-(3-(4-methylpiperazin-1-yl)propoxy)benzenesulfonamide] | 50 to 70
5.00 to 6.00 | – | – | – | – | – | CCN1CCN(CCCOc2ccc(S(=O)(=O)NCCCc3c[nH]c4ccccc34)cc2)CC1 [Example 36, N-(3-(1H-indol-3-yl)propyl)-4-(3-(4-ethylpiperazin-1-yl)propoxy)benzenesulfonamide] | 70 to 100
5.00 to 6.00 | – | – | – | – | – | O=S(=O)(NCCCc1c[nH]c2ccccc12)c1ccc(OCCCN2CCNCC2)cc1 [Example 45, N-(3-(1H-indol-3-yl)propyl)-4-(3-(piperazin-1-yl)propoxy)benzenesulfonamide] | 70 to 100
> 6.00 | > 6.00 | > 6.00 | 5.00 to 6.00 | > 5.00 | > 6.00 | CN1CCN(CCCOc2ccc(S(=O)(=O)NCCCc3c[nH]c4ccc(F)cc34)cc2)CC1 [Example 56, N-(3-(5-fluoro-1H-indol-3-yl)propyl)-4-(3-(4-methylpiperazin-1-yl)propoxy)benzenesulfonamide] | 35 to 50
5.00 to 6.00 | – | – | – | – | – | Cc1[nH]c2ccccc2c1CCCNS(=O)(=O)c1ccc(OCCCN2CCN(C)CC2)cc1 [Example 58, N-(3-(2-methyl-1H-indol-3-yl)propyl)-4-(3-(4-methylpiperazin-1-yl)propoxy)benzenesulfonamide] | 70 to 100
5.00 to 6.00 | > 6.00 | > 6.00 | 5.00 to 6.00 | > 5.00 | – | CN1CCC(CCCOc2ccc(S(=O)(=O)NCCCc3c[nH]c4ccc(F)cc34)cc2)CC1 [Example 59, N-(3-(5-fluoro-1H-indol-3-yl)propyl)-4-(3-(1-methylpiperidin-4-yl)propoxy)benzenesulfonamide] | 35 to 50
> 6.00 | > 6.00 | > 6.00 | 5.00 to 6.00 | > 5.00 | > 6.00 | O=S(=O)(NCCCc1c[nH]c2ccc(F)cc12)c1ccc(OCCCN2CCNCC2)cc1 [Example 61, N-(3-(5-fluoro-1H-indol-3-yl)propyl)-4-(3-(piperazin-1-yl)propoxy)benzenesulfonamide] | 0 to 35
> 6.00 | > 6.00 | > 6.00 | 5.00 to 6.00 | > 5.00 | > 6.00 | CN1CCN(CCCOc2ccc(S(=O)(=O)NCCCc3c[nH]c4ccc(Cl)cc34)cc2)CC1 [Example 66, N-(3-(5-chloro-1H-indol-3-yl)propyl)-4-(3-(4-methylpiperazin-1-yl)propoxy)benzenesulfonamide] | 0 to 35
> 6.00 | – | – | – | – | > 6.00 | CN1CCN(CCCOc2ccc(S(=O)(=O)NCCCc3c[nH]c4ccc(Cl)cc34)c3ccccc23)CC1 [Example 86, N-(3-(5-chloro-1H-indole-3-yl)propyl)-4-(3-(4-methylpiperazine-1-yl)propoxy)naphthalene-1-sulfonamide] | 70 to 100
> 6.00 | > 6.00 | > 6.00 | < 5.00 | – | > 6.00 | O=S(=O)(NCC1CCc2[nH]c3ccc(F)cc3c2C1)c1ccc(OCCCN2CCNCC2)cc1 (stereo not shown) [Example 188, N-((6-fluoro-2,3,4,9-tetrahydro-1H-carbazol-3-yl)methyl)-4-(3-(piperazin-1-yl)propoxy)benzenesulfonamide] | –
> 6.00 | > 6.00 | > 6.00 | < 5.00 | – | > 6.00 | CN1CCN(CCCOc2ccc(S(=O)(=O)NCC3CCc4[nH]c5ccccc5c4C3)cc2)CC1 (stereo not shown) [Example 189, 4-(3-(4-methylpiperazin-1-yl)propoxy)-N-((2,3,4,9-tetrahydro-1H-carbazol-3-yl)methyl)benzenesulfonamide] | –
> 6.00 | > 6.00 | > 6.00 | < 5.00 | – | > 6.00 | O=S(=O)(NCC1CCc2[nH]c3ccccc3c2C1)c1ccc(OCCCN2CCNCC2)cc1 (stereo not shown) [Example 190, 4-(3-(piperazin-1-yl)propoxy)-N-((2,3,4,9-tetrahydro-1H-carbazol-3-yl)methyl)benzenesulfonamide] | –
